# Test results published in paper PMC9672079, “Micro-PET imaging of hepatitis C virus NS3/4A protease activity using a protease-activatable retention probe” (Frontiers in Microbiology, 2022).
# Legend:
# NS3/4A-HCC36 cells [1] = assay: Retention of TAT-ΔNS3/4A-FITC in cells, fluorescence microscopy; type: cell-based, Human; conditions: fluorescence microscope
# Procedure: (§1) HCC36 or NS3/4A-HCC36 cells (1 × 10^5) were seeded with DMEM containing 10% serum in a 24-well plate at 37°C in a CO2 incubator overnight. The cells were incubated with 10 μM of TAT-ΔNS3/4A-FITC in the presence or absence of 2 μM telaprevir (purchased from Legend Star International, Taiwan) at 37°C for 1 h. After probe staining, the cells were washed using DMEM containing 10% serum per 20 min until the end of the experiment. After 8 h washing, the fluorescence of viable cells was observed under a fluorescence microscope at the indicated times (Axiovert 200, Carl Zeiss MicroImaging, GmbH, Germany).
# (§2) FIGURE 2 Specific retention of TAT-ΔNS3/4A-FITC in NS3/4A-HCC36- and HCV-infected cells. HCC36 cells, NS3/4A-HCC36 cells, or JFH-1-infected HCC36 cells were incubated with 10 μM TAT-ΔNS3/4A-FITC in the absence or presence of 2 μM telaprevir (NS3/4A protease inhibitor) at 37°C for 1 h. The cells were washed with DMEM containing 10% serum three times per hour. After culturing for 1 or 8 h, the phase contrast and fluorescence of viable cells were observed under a fluorescence microscope. Scale bar: 100 μm.
# HEK293 cells = conditions: HEK293, 0.1–2,000 ug/ml, 72 h, cell viability by cellular ATP synthesis, compared with CPT-11
# HCC36 cells [2] = assay: Specific retention of probe via flow cytometry; type: cell-based, Human; conditions: control HCC36 cells
# Procedure: (§3) We also used the WT probe (GRKKRRQRRR-[…]-LKKKYK-FITC) and the scrambled sequence probe (GRKKRRQRRR-[…]-LKKKYK) that could not be activated by protease as a control group to test the specific retention of probe via flow cytometry. HCC36 cells, NS3/4A-HCC36 cells, or JFH-1-infected HCC36 cells were incubated with 10 μM TAT-ΔNS3/4A-FITC or 10 μM TAT-scrambled NS3/4A-FITC in the absence or presence of 2 μM telaprevir (NS3/4A protease inhibitor) at 37 °C for 1 h. The cells were washed with DMEM containing 10% serum three times per hour. After culturing for 1 or 8 h, the fluorescence of viable cells was observed via flow cytometry.
# (§4) Supplementary file Image_5.TIF: Supplementary Figure 5 To evaluate the specific retention of probe via flow cytometry, we used the WT probe (GRKKRRQRRR-[…]-LKKKYK-FITC) and the scrambled sequence probe (GRKKRRQRRR-[…]-LKKKYK) that could not be activated by protease as a control group to test the specific retention of probe via flow cytometry. HCC36 cells, NS3/4A-HCC36 cells, or JFH-1-infected HCC36 cells were incubated with 10 μM TAT-ΔNS3/4A-FITC or 10 μM TAT-scrambled NS3/4A-FITC in the absence or presence of 2 μM telaprevir (NS3/4A protease inhibitor) at 37°C for 1 h. The cells were washed with DMEM containing 10% serum three times per hour. After culturing for 1 or 8 h, the fluorescence of viable cells was observed via flow cytometry. Click here for additional data file.
# [3] = tested on: JFH-1-infected HCC36 cells; assay: Specific retention of probe via flow cytometry; type: cell-based, Human
# Procedure: as §3, §4
# NS3/4A-HCC36 cells [4] = assay: Specific retention of probe via flow cytometry; type: cell-based, Human
# Procedure: as §3, §4
# [5] = tested on: NS3/4A-HCC36 and HCC36 tumors; assay: Histological analysis of FITC fluorescence in tumor sections after i.v. probe; type: in vivo, BALB/c nude mice; conditions: i.v. 500 μM (in 100 μL), 4 h after injection, frozen sections, n = 3 mice
# Procedure: BALB/c nude mice (n = 3) bearing established HCC36 and NS3/4A-HCC36 (100–200 mm^3) tumors in their right and left hind legs, respectively, were intravenously injected with 500 μM (in 100 μL) TAT-ΔNS3/4A-FITC and sacrificed 4 h later. Tumors were excised and embedded in OCT compound (Tissue-Tek, CA) in liquid nitrogen. The adjacent tumor sections either directly detect the FITC-fluorescent intensity to observe the accumulation of TAT-ΔNS3/4A-FITC probe or stained with a 520 HCV protease Assay Kit (AnaSpec) to visualize NS3/4A activity. The sections were examined on an upright BX4 microscope (Olympus, Melville, NY, USA) or viewed under phase contrast or fluorescence fields on an inverted Axiovert 200 microscope (Carl Zeiss Microimaging, Thornwood, NY, USA).
# FIGURE 3 Specific retention of TAT-ΔNS3/4A-FITC in NS3/4A-expressing tumors in vivo. Mice bearing established NS3/4A-HCC36 and HCC36 tumors were injected with 500 μM TAT-NS3/4A-FITC and sacrificed after 4 h. Sections of NS3/4A-HCC36 (upper panels) and HCC36 (lower panels) tumors were stained with 520 HCV protease Assay Kit (AnaSpec) to detect NS3/4A activity in tumor sections. FITC-derived fluorescence (green) and NS3/4A activity (red) were observed under a fluorescence microscope. Scale bar: 1 mm.
# HCC36 cells [6] = assay: Retention of TAT-ΔNS3/4A-FITC in control cells, fluorescence microscopy; type: cell-based, Human; conditions: fluorescence microscope
# Procedure: as §1
# Infectious HCV particles were generated as previously described ([Hayashi et al., 2014]). HCC36 cells (1 × 10^5) were seeded in DMEM containing 10% serum in a 24-well plate at 37°C in a CO2 incubator overnight. The cells were infected with JFH-1 and incubated with or without 2 μM telaprevir. After 5 days, the parental HCC36 and JFH-1-infected cells were stained with 10 μM of TAT-ΔNS3/4A-FITCat 37 °C for 1 h. […] After 8 h washing, the fluorescence of viable cells was observed under a fluorescence microscope at the indicated times (Axiovert 200, Carl Zeiss MicroImaging, GmbH, Germany).
# FIGURE 2 Specific retention of TAT-ΔNS3/4A-FITC in NS3/4A-HCC36- and HCV-infected cells. […] After culturing for 1 or 8 h, the phase contrast and fluorescence of viable cells were observed under a fluorescence microscope. […]
# [7] = tested on: JFH-1-infected HCC36 cells; assay: Retention of TAT-ΔNS3/4A-FITC in HCV-infected cells, fluorescence microscopy; type: cell-based, Human; conditions: fluorescence microscope
# Procedure: Infectious HCV particles were generated as previously described ([Hayashi et al., 2014]). HCC36 cells (1 × 10^5) were seeded in DMEM containing 10% serum in a 24-well plate at 37°C in a CO2 incubator overnight. The cells were infected with JFH-1 and incubated with or without 2 μM telaprevir. After 5 days, the parental HCC36 and JFH-1-infected cells were stained with 10 μM of TAT-ΔNS3/4A-FITCat 37 °C for 1 h. After probe staining, the cells were washed using DMEM containing 10% serum per 20 min until the end of the experiment. After 8 h washing, the fluorescence of viable cells was observed under a fluorescence microscope at the indicated times (Axiovert 200, Carl Zeiss MicroImaging, GmbH, Germany).
# as §2
# [8] = 10 μM probe + 2 μM telaprevir, 8 h
# [9] = 10 μM probe, 37°C, 1 h staining
# [10] = 10 μM probe 1 h, washed three times per hour, 8 h
# [11] = 10 μM probe 1 h, washed every 20 min, 8 h
substance,measurement,setting,value
"GRKKRRQRRR-DEDEDEDEMEECASH-LKKKYK-FITC [TAT-ΔNS3/4A-FITC, cell-penetrating Tat peptide, HCV NS3/4A protease substrate and hydrophilic domain (KKKYK), labeled by FITC]",fluorescence retention after culturing for 8 h,"NS3/4A-HCC36 cells [1]; 10 μM probe 1 h, washed with DMEM 10% serum every 20 min, 8 h",strong fluorescence only accumulated in NS3/4A-HCC36 cells
same,fluorescence retention after 8 h in presence of NS3/4A inhibitor,NS3/4A-HCC36 cells [1]; [8],did not accumulate
same,fluorescence accumulation after probe staining,NS3/4A-HCC36 cells [1]; [9],strong fluorescence accumulated in each cell
same,"in vitro toxicity, growth of HEK293",HEK293 cells,could not inhibit the growth of HEK293
same,fluorescence retention after culturing for 8 h,HCC36 cells [2]; [10],not in control HCC36 cells
same,fluorescence after 1 h probe staining,"HCC36 cells [2]; 10 μM probe, 37°C, 1 h",strong fluorescence of WT probe accumulated in each cell
same,fluorescence retention after culturing for 8 h,[3]; [10],strong fluorescence of WT probe only accumulated in NS3/4A-HCC36 cells and HCV-infected HCC36 cells
same,fluorescence retention after 8 h in presence of telaprevir,[3]; [8],could block via the 2 μM telaprevir
same,fluorescence after 1 h probe staining,"[3]; 10 μM probe, 37°C, 1 h",strong fluorescence of WT probe accumulated in each cell
same,fluorescence retention after culturing for 8 h,NS3/4A-HCC36 cells [4]; [10],strong fluorescence of WT probe only accumulated in NS3/4A-HCC36 cells
same,fluorescence retention after 8 h in presence of telaprevir,NS3/4A-HCC36 cells [4]; [8],could block via the 2 μM telaprevir
same,fluorescence after 1 h probe staining,"NS3/4A-HCC36 cells [4]; 10 μM probe, 37°C, 1 h",strong fluorescence of WT probe accumulated in each cell
same,FITC-derived fluorescence in NS3/4A-HCC36 tumor sections,[5],accumulated in the NS3/4A-HCC3 tumors
same,fluorescence retention after culturing for 8 h,HCC36 cells [6]; [11],not in control HCC36 cells
same,fluorescence accumulation after probe staining,HCC36 cells [6]; [9],strong fluorescence accumulated in each cell
same,fluorescence retention after culturing for 8 h,[7]; [11],strong fluorescence only accumulated in NS3/4A-HCC36 cells and HCV-infected HCC36 cells
same,fluorescence retention after 8 h in presence of NS3/4A inhibitor,[7]; [8],did not accumulate
same,fluorescence accumulation after probe staining,[7]; [9],strong fluorescence accumulated in each cell
